Reference: patent US20250241926A1, “HETEROCYCLIC COMPOUNDS FOR USE IN THE TREATMENT OF CANCER” (ARTIOS PHARMA LIMITED, priority 2021, published 2025)
Like-named read-outs stand apart in the source and are kept apart here.

Target: T1, Human Polθ polymerase domain (aa1820-2590) (Homo sapiens, UniProt O75417)
T1 construct: Human Polθ polymerase domain (aa1820-2590) was expressed in E. Coli; made in house; host or cells: E. coli
T1 sequence (O75417 1820-2590): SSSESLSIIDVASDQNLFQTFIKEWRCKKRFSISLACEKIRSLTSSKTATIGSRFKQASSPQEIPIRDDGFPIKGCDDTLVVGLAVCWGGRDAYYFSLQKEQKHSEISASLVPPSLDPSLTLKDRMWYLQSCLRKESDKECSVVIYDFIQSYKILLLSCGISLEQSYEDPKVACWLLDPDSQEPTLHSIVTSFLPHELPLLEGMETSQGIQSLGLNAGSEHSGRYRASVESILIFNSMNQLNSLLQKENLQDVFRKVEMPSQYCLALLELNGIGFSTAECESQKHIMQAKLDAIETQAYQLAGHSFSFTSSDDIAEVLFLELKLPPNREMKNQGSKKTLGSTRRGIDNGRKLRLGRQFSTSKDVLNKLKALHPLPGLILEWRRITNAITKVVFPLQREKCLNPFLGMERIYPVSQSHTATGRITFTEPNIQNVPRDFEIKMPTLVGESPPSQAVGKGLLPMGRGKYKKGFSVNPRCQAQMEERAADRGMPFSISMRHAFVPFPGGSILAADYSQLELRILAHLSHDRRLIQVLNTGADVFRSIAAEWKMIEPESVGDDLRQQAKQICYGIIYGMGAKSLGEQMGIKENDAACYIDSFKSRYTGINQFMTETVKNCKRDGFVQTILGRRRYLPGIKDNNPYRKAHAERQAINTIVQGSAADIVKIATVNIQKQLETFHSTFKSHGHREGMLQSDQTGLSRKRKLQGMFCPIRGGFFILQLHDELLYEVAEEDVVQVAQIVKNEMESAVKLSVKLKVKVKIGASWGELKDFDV
Assay: Polθ Polymerase Domain Kinact/Kl Assay (PicoGreen)
Assay type: biochemical
Conditions: covalent inhibitors, kobs vs [I] fit, 0.8 nM Polθ, 100 nM DNA substrate
Procedure: Polθ Polymerase Domain Kinact/Kl Assay
A PicoGreen assay was used to measure the Kinact and Kl values of covalent compounds that inhibit the activity of Polθ in vitro.
Human Polθ polymerase domain (aa1820-2590) was expressed in E. Coli, purified, aliquoted and stored at −80° C. until required. Polθ substrate was generated from a 1.2:1 mix of DNA II Short to DNA II Long to give a final concentration of […] substrate in annealing buffer (20 mM Tris pH 7.5, 50 mM NaCl). The substrate was heated in 50 mL aliquots to 95° C. in a heating block for 5 min before the heating block switched off, the reaction left to cool to rt and stored at −20° C. until required.
Assay measurements were performed with 1× buffer comprising 25 mM Tris pH 7.5, 12.5 mM NaCl, […], 5% (v/v) glycerol, 0.01% v/v Triton x-100, 0.1 mg/ml BSA, 1 mM DTT. Test compounds were prepared by dilution in 100% DMSO to give a 12 μM intermediate stock of each (100× final top concentration). 100 nL of 23× 1:1.5-fold serial dilutions and a DMSO only control were dispensed using the Tecan dispenser into Greiner 384 well black low volume plates (product code 784076). DMSO concentration was maintained at 1% of the final assay volume by back filling with DMSO.
2× Working stock of substrate (200 nM of DNA substrate and […] dNTPs) and enzyme (1.4 nM Polθ) were made up in assay buffer. 5 μL/well of both enzyme and substrate 2× solutions were dispensed using a Tempest dispenser (Formulatrix) into assay plates that had been pre-dispensed with compound to give a final assay concentration of 100 nM DNA substrate, […] dNTPs and 0.8 nM Polθ. To stop the reaction, […] of a solution containing 25 mM Tris-HCl pH 7.5 and 20 mM EDTA was added at […] (t=0, 2.5, 5, 7.5, 10, 12.5, 15, 20, 25, 30, 35, 40, 45, 50, 55 and 60 min) using the Tempest's time delay function. The plates were covered during the time course to prevent evaporation. After completing the assay, 5 μL of detection reagent (25 mM Tris-HCl pH 7.5 and 2.5% (v/v) PicoGreen) was dispensed into the wells using a Tempest liquid handler (Formulatrix) and plates subsequently read on the CLARIOstar Plus (BMG Labtech) using the default optical settings for fluorescein and the auto gain/focus settings.
All data analysis was carried out using GraphPad Prism V. 8 (GraphPad Software Inc, San Diego, CA) Time course data for each inhibitor concentration was fitted to equation 1 to determine kobs values.^1 Any time points where the control (DMSO alone) reaction was no longer linear were excluded from the analysis.
A secondary plot of kobs vs [I] is used to determine the Kinact and Kl parameters (for a 2-step covalent inhibitor) by fitting to equation 2.1
[formula] • 1) Evaluation of Enzyme Inhibitors in Drug Discovery (Ch9), R. A Copeland, Wiley, 2nd Edition 2013.

Compound	kinact/KI [M⁻¹ s⁻¹]	kinact/KI (read-out: Kinact/KI) [M⁻¹ s⁻¹]
2-(((S)-6-(2-((1S,4S)-5- (1-Acryloylazetidin-3-yl)- 2,5-diazabicyclo[2.2.1] heptan-2-yl)ethyl)-7- fluoro-1-methyl-2-oxo- 1,2,3,4,5,6-hexahydro- benzo[b][1,4]diazocin-3- yl)amino)-6-methyl-4- (trifluoromethyl)nicotino- nitrile [Example 19]	160000	–
Cc1cc(C(F)(F)F)c(C#N)c(N[C@H]2CCN(CCOC3CCN(C(=O)/C=C/CN(C)C)CC3)c3c(F)cccc3N(C)C2=O)n1 [Example 49, (S,E)-2-((6-(2-((1-(4-(Dimethyl-amino)but-2-enoyl)piperidin-4-yl)oxy)ethyl)-7-fluoro-1-methyl-2-oxo-1,2,3,4,5,6-hexahydrobenzo [b][1,4]diazocin-3-yl)amino)-6-methyl-4-(tri-fluoromethyl)-nicotinonitrile]	–	110000
Cc1cc(C(F)(F)F)c(C#N)c(N[C@H]2CCN(CCN(C)C(=O)C3CN(C(=O)/C=C/CN(C)C)C3)c3c(F)cccc3N(C)C2=O)n1 [Example 29, (S,E)-N-(2-(4-((3-Cyano-6-methyl-4-(trifluoromethyl)pyridin-2-yl)amino)-10-fluoro-6-methyl-5-oxo-3,4,5,6-tetrahydrobenzo[b][1,4]diazocin-1(2H)-yl)ethyl)-1-(4-(dimethylamino)but-2-enoyl)-N-methylazetidine-3-carboxamide]	–	1.2e+06
Cc1cc(C(F)(F)F)c(C#N)c(N[C@H]2CCN(CC(O)CN3CCN(C(=O)/C=C/CN(C)C)CC3)c3cc(F)ccc3N(C)C2=O)n1 (single isomer, unassigned) [Example 34B]	–	680000
CO[C@H]1CN(C(=O)/C=C/CN(C)C)C[C@@H]1C(=O)N(C)CCN1CC[C@H](Nc2nc(C)cc(C(F)(F)F)c2C#N)C(=O)N(C)c2cccc(F)c21 (relative stereo) [Example 28, (rel-3S,4R)—N-(2-((S)-4-((3-Cyano-6-methyl-4-(trifluoromethyl)pyridin-2-yl)amino)-10-fluoro-6-methyl-5-oxo-3,4,5,6-tetrahydrobenzo[b][1,4]diazocin-1(2H)-yl)ethyl)-1-((E)-4-(dimethylamino)but-2-enoyl)-4-methoxy-N-methylpyrrolidine-3-carboxamide]	–	560000
C=CC(=O)N1CC2(CN(CCN3CC[C@H](Nc4nc(C)cc(C(F)(F)F)c4C#N)C(=O)N(C)c4cccc(F)c43)CCN2)C1 [Example 23, (S)-2-((6-(2-(2-Acryloyl-2,5,8-triazaspiro[3.5]nonan-8-yl)ethyl)-7-fluoro-1-methyl-2-oxo-1,2,3,4,5,6-hexahydrobenzo[b][1,4]diazocin-3-yl)amino)-6-methyl-4-(trifluoromethyl)nicotinonitrile]	–	940000
(S)-2-((6-(2-(3-(4-Acrylo- ylpiperazin-1-yl)azetidin- 1-yl)ethyl)-7-fluoro-1- methyl-2-oxo-1,2,3,4,5,6- hexahydrobenzo[b][1,4] diazocin-3-yl)amino)-6- methyl-4-(trifluorometh- yl)nicotinonitrile [Example 10]	190000	–
C=CC(=O)N1CC(c2nnc(CN3CC[C@H](Nc4nc(C)cc(C(F)(F)F)c4C#N)C(=O)N(C)c4cccc(F)c43)[nH]2)C1 [Example 68, (S)-2-((6-((5-(1-Acryloylazetidin-3-yl)-4H-1,2,4-triazol-3-yl)methyl)-7-fluoro-1-methyl-2-oxo-1,2,3,4,5,6-hexahydrobenzo[b][1,4]diazocin-3-yl)amino)-6-methyl-4-(trifluoromethyl)nicotinonitrile]	–	130000
C=CC(=O)N1CCN2CCN(CCN3CC[C@H](Nc4nc(C)cc(C(F)(F)F)c4C#N)C(=O)N(C)c4cccc(F)c43)CC2C1 (single isomer, unassigned) [Example 72A]	–	180000
C=CC(=O)N1CC2(CN(CCN3CC[C@H](Nc4nc(C)cc(C(F)(F)F)c4C#N)C(=O)N(C)c4cccc(F)c43)CCN2C)C1 [Example 6, (S)-2-((6-(2-(2-Acryloyl-5-methyl-2,5,8-triazaspiro[3.5]nonan-8-yl)ethyl)-7-fluoro-1-methyl-2-oxo-1,2,3,4,5,6-hexahydrobenzo[b][1,4]diazocin-3-yl)amino)-6-methyl-4-(trifluoromethyl)nicotinonitrile]	–	980000
Cc1cc(C(F)(F)F)c(C#N)c(N[C@H]2CCN(CCCOC3CN(C(=O)/C=C/[C@@H]4CCCN4C)C3)c3c(F)cccc3N(C)C2=O)n1 [Example 54, 2-(((S)-7-Fluoro-1-methyl-6-(3-((1-((E)-3-((S)-1-methylpyrrolidin-2-yl)acryloyl)azetidin-3-yl)oxy)propyl)-2-oxo-1,2,3,4,5,6-hexahydrobenzo[b][1,4]diazocin-3-yl)amino)-6-methyl-4-(trifluoromethyl)nicotinonitrile]	–	700000
CO[C@H]1CN(C(=O)/C=C/CN(C)C)C[C@@H]1COCCN1CC[C@H](Nc2nc(C)cc(C(F)(F)F)c2C#N)C(=O)N(C)c2cccc(F)c21 (relative stereo) [Example 48, 2-(((S)-6-(2-(((rel-3R,4R)-1-((E)-4-(Dimethylamino)-but-2-enoyl)-4-methoxypyrroli-din-3-yl)methoxy)-ethyl)-7-fluoro-1-methyl-2-oxo-1,2,3,4,5,6-hexa-hydrobenzo[b] [1,4]diazocin-3-yl)amino)-6-meth-yl-4-(trifluoro-methyl)nicotino-nitrile]	–	680000
C#CCN(C)C/C=C/C(=O)N1CC(OCCCN2CC[C@H](Nc3nc(C)cc(C(F)(F)F)c3C#N)C(=O)N(C)c3cccc(F)c32)C1 [Example 57, (S,E)-2-((7-Fluoro-1-methyl-6-(3-((1-(4-(methyl(prop-2-yn-1-yl)amino)but-2-enoyl)azetidin-3-yl)oxy)propyl)-2-oxo-1,2,3,4,5,6-hexahydrobenzo[b][1,4]diazocin-3-yl)amino)-6-methyl-4-(trifluoromethyl)nicotinonitrile]	–	300000
(S,E)-2-((6-(2-(2- (4-(Dimethyl- amino)but-2-eno- yl)-5-methyl-7- oxo-2,5,8-triaza- spiro[3.5]nonan-8- yl)ethyl)-7-fluoro- 1-methyl-2-oxo- 1,2,3,4,5,6-hexa- hydrobenzo[b] [1,4]diazocin-3- yl)amino)-6-meth- yl-4-(trifluoro- methyl)nicotino- nitrile [Example 46]	560000	–
C=CC(=O)N1CC(N2CCN(CCN3CC[C@H](Nc4nc(C)cc(C(F)(F)F)c4C#N)C(=O)N(C)c4cccc(F)c43)C[C@@H]2C)C1 [Example 17, 2-(((S)-6-(2-((S)-4-(1-Acryloylazetidin-3-yl)-3-methylpiperazin-1-yl)-ethyl)-7-fluoro-1-methyl-2-oxo-1,2,3,4,5,6-hexa-hydrobenzo[b][1,4]diazocin-3-yl)amino)-6-methyl-4-(trifluorometh-yl)nicotinonitrile]	–	570000
